The record followed here is patent US20260166039A1 (SCHRÖDINGER, INC., priority 2022, published 2026).

Usually IC50 stands for the midpoint of a concentration-inhibition curve. The low end stands for higher potency, the high end for lower potency.

A value given as a limit tells only on which side of the number the result lay.

The target of the assay is T1, Wee1 kinase domain (Homo sapiens, UniProt P30291).
T1 construct: Wee1 kinase domain was purchased from Carna (catalog #05-177); purchased Carna 05-177
T1 sequence (P30291 299-569 limits assumed): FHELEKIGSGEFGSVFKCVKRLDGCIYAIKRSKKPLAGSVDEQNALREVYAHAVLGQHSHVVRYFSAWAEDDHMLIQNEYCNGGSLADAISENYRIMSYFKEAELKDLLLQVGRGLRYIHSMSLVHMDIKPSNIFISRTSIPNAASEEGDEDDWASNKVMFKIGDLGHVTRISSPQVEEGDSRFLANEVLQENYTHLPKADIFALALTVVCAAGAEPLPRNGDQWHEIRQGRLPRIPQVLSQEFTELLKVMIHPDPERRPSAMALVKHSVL
The experiment in a line: Wee1 Kinase Biochemical Assay (ADP-Glo). The following applies: class symbols; 1 nM Wee1 enzyme, 15 uM ATP, 4 hours at 25° C. The method in brief: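 Compounds tested against 1 nM Wee1 kinase domain in Tris buffer containing 20 mM MgCl2, BSA and 2 mM DTT, with 15 uM ATP and poly(Lys,Tyr) substrate for 4 h at 25 °C. Luminescent ADP detection gave percent inhibition, normalized to DMSO and saturating inhibitor.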
For orientation: In ADP-Glo the light output rises with the ADP produced.
In turn, `CNCc1cccc(N2c3nc(Nc4ccc(-n5ccnc5)c(F)c4)ncc3[C@]3(C)COC(C)(C)C[C@H]23)n1` (single isomer, unassigned) [Example 465] gave an IC50 of 100 to 1000 nM.

Compound `CNCc1cccc(N2c3nc(Nc4ccc(-n5ccnc5)nc4)ncc3[C@]3(C)COC(C)(C)C[C@H]23)n1` (single isomer, unassigned) [Example 467] had an IC50 of at least 1000 nM.

Compound `CNCc1cccc(N2c3nc(Nc4cccc(N5CCOCC5)c4)ncc3[C@]3(C)COC(C)(C)C[C@H]23)n1` (single isomer, unassigned) [Example 469] displayed an IC50 of 100 to 1000 nM.

As for `CNCc1cccc(N2c3nc(Nc4cnn(C)c4)ncc3[C@]3(C)COC(C)(C)C[C@H]23)n1` (single isomer, unassigned) [Example 471], the half-inhibitory concentration (IC50) was 100 to 1000 nM.

Turning to `CNCc1cccc(N2c3nc(Nc4ccc(N5CCOC[C@H]5C)cc4)ncc3[C@]3(C)COC(C)(C)C[C@H]23)n1` (single isomer, unassigned) [Example 474], the IC50 was 100 to 1000 nM.

In the case of `CNCc1cccc(N2c3nc(Nc4ccc(N5CCOC[C@@H]5C)cc4)ncc3[C@]3(C)COC(C)(C)C[C@H]23)n1` (single isomer, unassigned) [Example 475], the IC50 was 100 to 1000 nM.

The compound `CNCc1cccc(N2c3nc(Nc4cnnc(C)c4)ncc3[C@]3(C)COC(C)(C)C[C@H]23)n1` (single isomer, unassigned) [Example 477] had an IC50 of 100 to 1000 nM.

For the compound `CNCc1cccc(N2c3nc(Nc4cnnc(C)c4)ncc3[C@@]3(C)COC(C)(C)C[C@@H]23)n1` (single isomer, unassigned) [Example 478], the IC50 was 10 to 100 nM.

In turn, `CNCc1cccc(N2c3nc(Nc4ccc(N5[C@@H]6COC[C@H]5C6)cc4)ncc3[C@]3(C)COC(C)(C)C[C@H]23)n1` (single isomer, unassigned) [Example 480] gave an IC50 of 100 to 1000 nM.

As for `CNCc1cccc(N2c3nc(Nc4ccc(N5C[C@H]6C[C@@H](C5)O6)cc4)ncc3[C@]3(C)COC(C)(C)C[C@H]23)n1` (single isomer, unassigned) [Example 482], the IC50 fell in the range of 100 to 1000 nM.

`CC1(C)C[C@H]2N(c3cccc(N=S(C)(C)=O)n3)c3nc(Nc4ccc(N5CCN6CCC[C@H]6C5)cc4)ncc3[C@@]2(C)CO1` (single isomer, unassigned) [Example 507] returned an IC50 of under 10 nM.

Compound `CC1(C)C[C@H]2N(c3cccc(N=S(C)(C)=O)n3)c3nc(Nc4ccc(N5CC6(COC6)C5)cc4)ncc3[C@@]2(C)CO1` (single isomer, unassigned) [Example 508] came in with an IC50 of under 10 nM.

With `CN1CCN(c2ccc(Nc3ncc4c(n3)N(c3cccc(N=S(C)(C)=O)n3)[C@@H]3CC(C)(C)OC[C@]43C)cn2)CC1` (single isomer, unassigned) [Example 509], the IC50 is under 10 nM.

On to `CN1CCN(c2ccc(Nc3ncc4c(n3)N(c3cccc(N=S(C)(C)=O)n3)[C@@H]3CC(C)(C)OC[C@]43C)nc2)CC1` (single isomer, unassigned) [Example 510], for which the IC50 is under 10 nM.

With `CC1(C)C[C@H]2N(c3cccc(N=S(C)(C)=O)n3)c3nc(Nc4ccc(N5CCN6CCC5C6)cc4)ncc3[C@@]2(C)CO1` (single isomer, unassigned) [Example 511], the IC50 is under 10 nM.

As for `CC1(C)C[C@H]2N(c3cccc(N=S(C)(C)=O)n3)c3nc(Nc4ccncc4)ncc3[C@@]2(C)CO1` (single isomer, unassigned) [Example 512], the IC50 is 100 to 1000 nM.

In turn, `Cn1ccc(Nc2ncc3c(n2)N(c2cccc(N=S(C)(C)=O)n2)[C@@H]2CC(C)(C)OC[C@]32C)n1` (single isomer, unassigned) [Example 513] came in with a half-maximal inhibitory concentration (IC50) of under 10 nM.

`Cn1ncc(Nc2ncc3c(n2)N(c2cccc(N=S(C)(C)=O)n2)[C@@H]2CC(C)(C)OC[C@]32C)n1` (single isomer, unassigned) [Example 515]: the IC50 is under 10 nM.

Compound `CCn1cc(Nc2ncc3c(n2)N(c2cccc(N=S(C)(C)=O)n2)[C@@H]2CC(C)(C)OC[C@]32C)nn1` (single isomer, unassigned) [Example 516] gave an IC50 of under 10 nM.

Compound `Cc1cc(Nc2ncc3c(n2)N(c2cccc([C@H]4CCCN4)n2)[C@H]2CC(C)(C)OC[C@@]32C)ccc1N1CCOCC1` (single isomer, unassigned) [Example 521] registered an IC50 of 100 to 1000 nM.

For `CN(C)Cc1cccc(N2c3nc(Nc4ccc(N5CCOCC5)cc4)ncc3[C@]3(C)COC(C)(C)C[C@H]23)n1` (single isomer, unassigned) [Example 524], the IC50 lay within 100 to 1000 nM.

Take `CC1(C)C[C@@H]2N(c3cccc([C@@H]4CCCN4)n3)c3nc(Nc4ccc(N5CCOCC5)cc4)ncc3[C@]2(C)CO1` (single isomer, unassigned) [Example 525]: the IC50 is 100 to 1000 nM.

`CC1(C)C[C@@H]2N(c3cccc([C@H]4CCCN4)n3)c3nc(Nc4ccc(N5CCOCC5)cc4)ncc3[C@]2(C)CO1` (single isomer, unassigned) [Example 527] returned a concentration for half-maximal inhibition (IC50) of 10 to 100 nM.

`CC1(C)C[C@H]2N(c3cccc([C@H]4CCCN4)n3)c3nc(Nc4ccc(N5CCOCC5)cc4)ncc3[C@@]2(C)CO1` (single isomer, unassigned) [Example 528] returned an IC50 of under 10 nM.

As for `Cc1cc(Nc2ncc3c(n2)N(c2cccc([C@@H]4CCCN4)n2)[C@H]2CC(C)(C)OC[C@@]32C)ccc1N1CCOCC1` (single isomer, unassigned) [Example 530], the IC50 lay within 10 to 100 nM.

Consider `CC1(C)C[C@@H]2N(c3cccc(C4CCNCC4)n3)c3nc(Nc4ccc(N5CCOCC5)cc4)ncc3[C@]2(C)CO1` (single isomer, unassigned) [Example 532], for which the IC50 lay in the range of 100 to 1000 nM.

`CN1CCC(c2cccc(N3c4nc(Nc5ccc(N6CCOCC6)cc5)ncc4[C@]4(C)COC(C)(C)C[C@H]34)n2)CC1` (single isomer, unassigned) [Example 534]: the IC50 is 100 to 1000 nM.

With `CN1CCN(c2cccc(N3c4nc(Nc5ccc(N6CCOCC6)cc5)ncc4[C@]4(C)COC(C)(C)C[C@H]34)n2)CC1` (single isomer, unassigned) [Example 536], the IC50 was in the range of 10 to 100 nM.

For `CN[C@@H](C)c1cccc(N2c3nc(Nc4ccc(N5CCOCC5)cc4)ncc3[C@]3(C)COC(C)(C)C[C@H]23)n1` (single isomer, unassigned) [Example 538], the IC50 lay in the range of 10 to 100 nM.

For `CC1(C)C[C@@H]2N(c3cccc([C@H]4CCNC4)n3)c3nc(Nc4ccc(N5CCOCC5)cc4)ncc3[C@]2(C)CO1` (single isomer, unassigned) [Example 540], the half-maximal inhibitory concentration (IC50) is 10 to 100 nM.

`CC1(C)C[C@@H]2N(c3cccc([C@H]4CCNC4)n3)c3nc(Nc4ccc(N5CCOCC5)cc4)ncc3[C@]2(C)CO1` (single isomer, unassigned) [Example 541] yielded an IC50 of 100 to 1000 nM.

The compound `CNC1(c2cccc(N3c4nc(Nc5ccc(N6CCOCC6)cc5)ncc4[C@]4(C)COC(C)(C)C[C@H]34)n2)CC1` (single isomer, unassigned) [Example 544] came in with an IC50 of 100 to 1000 nM.

On to `CC1(C)C[C@@H]2N(c3cccc(C4(F)CNC4)n3)c3nc(Nc4ccc(N5CCOCC5)cc4)ncc3[C@]2(C)CO1` (single isomer, unassigned) [Example 546], for which the IC50 is 100 to 1000 nM.

Consider `CNCc1ccnc(N2c3nc(Nc4ccc(N5CCOCC5)cc4)ncc3[C@@]3(C)COC(C)(C)C[C@@H]23)c1` (single isomer, unassigned) [Example 547], for which the IC50 was 10 to 100 nM.

`CNCc1ccnc(N2c3nc(Nc4ccc(N5CCOCC5)cc4)ncc3[C@]3(C)COC(C)(C)C[C@H]23)c1` (single isomer, unassigned) [Example 548] returned a half-maximal inhibitory concentration (IC50) of at least 1000 nM.

In turn, `CN[C@H](C)c1cccc(N2c3nc(Nc4ccc(N5CCOCC5)cc4)ncc3[C@]3(C)COC(C)(C)C[C@H]23)n1` (single isomer, unassigned) [Example 550] displayed an IC50 of 100 to 1000 nM.

The compound `CN[C@H]1CCc2ccc(N3c4nc(Nc5ccc(N6CCOCC6)cc5)ncc4[C@@]4(C)COC(C)(C)C[C@@H]34)nc21` (single isomer, unassigned) [Example 552] registered an IC50 of 100 to 1000 nM.

`CN[C@@H]1CCc2ccc(N3c4nc(Nc5ccc(N6CCOCC6)cc5)ncc4[C@]4(C)COC(C)(C)C[C@H]34)nc21` (single isomer, unassigned) [Example 554] had an IC50 of 100 to 1000 nM.

As for `CN[C@H](C)c1cc(C)nc(N2c3nc(Nc4ccc(N5CCOCC5)cc4)ncc3[C@@]3(C)COC(C)(C)C[C@@H]23)c1` (single isomer, unassigned) [Example 557], the IC50 was under 10 nM.

`CN[C@H](C)c1cc(C)nc(N2c3nc(Nc4ccc(N5CCOCC5)cc4)ncc3[C@]3(C)COC(C)(C)C[C@H]23)c1` (single isomer, unassigned) [Example 558] showed an IC50 of 100 to 1000 nM.

`CN[C@@H](C)c1cc(C)nc(N2c3nc(Nc4ccc(N5CCOCC5)cc4)ncc3[C@]3(C)COC(C)(C)C[C@H]23)c1` (single isomer, unassigned) [Example 559] had an IC50 of at least 1000 nM.

On to `CN[C@@H](C)c1cc(C)nc(N2c3nc(Nc4ccc(N5CCOCC5)cc4)ncc3[C@@]3(C)COC(C)(C)C[C@@H]23)c1` (single isomer, unassigned) [Example 560], for which the IC50 was 10 to 100 nM.

The compound `CC1(C)C[C@@H]2N(c3ccc4c(n3)CCNC4)c3nc(Nc4ccc(N5CCOCC5)cc4)ncc3[C@]2(C)CO1` (single isomer, unassigned) [Example 561] returned an IC50 of at least 1000 nM.

Compound `CC1(C)C[C@@H]2N(c3ccc4c(n3)[C@](C)(N)CC4)c3nc(Nc4ccc(N5CCOCC5)cc4)ncc3[C@]2(C)CO1` (single isomer, unassigned) [Example 563] yielded an IC50 of 100 to 1000 nM.

In turn, `CC1(C)C[C@@H]2N(c3ccc4c(n3)[C@@](C)(N)CC4)c3nc(Nc4ccc(N5CCOCC5)cc4)ncc3[C@]2(C)CO1` (single isomer, unassigned) [Example 566] gave an IC50 of at least 1000 nM.

`CC1(C)C[C@@H]2N(c3cccc(C(C)(C)N)n3)c3nc(Nc4ccc(N5CCOCC5)cc4)ncc3[C@]2(C)CO1` (single isomer, unassigned) [Example 568] returned a 50% inhibitory concentration (IC50) of 10 to 100 nM.
